Source: paper PMC11868595, “Safety, pharmacokinetics and efficacy of HA121-28 in patients with advanced solid tumors and RET fusion-positive non-small-cell lung cancer: a multicenter, open-label, single-arm phase 1/2 trial” (Signal Transduction and Targeted Therapy, 2025)

What was measured:
[1] = system: SGC-7901 cells; test: Tumor cell proliferation in vitro; type: cell-based, human; details: SGC7901
[2] = system: A498 cells; test: Tumor cell proliferation in vitro; type: cell-based
[3] = system: TT cells; test: Tumor cell proliferation in vitro; type: cell-based, human
[4] = Dog plasma kinetics; type: in vivo
[5] = biological target: PDGFRβ (Homo sapiens, UniProt P09619); test: Tyrosine kinase inhibition; type: biochemical
Chain of PDGFRβ (P09619 33-1106): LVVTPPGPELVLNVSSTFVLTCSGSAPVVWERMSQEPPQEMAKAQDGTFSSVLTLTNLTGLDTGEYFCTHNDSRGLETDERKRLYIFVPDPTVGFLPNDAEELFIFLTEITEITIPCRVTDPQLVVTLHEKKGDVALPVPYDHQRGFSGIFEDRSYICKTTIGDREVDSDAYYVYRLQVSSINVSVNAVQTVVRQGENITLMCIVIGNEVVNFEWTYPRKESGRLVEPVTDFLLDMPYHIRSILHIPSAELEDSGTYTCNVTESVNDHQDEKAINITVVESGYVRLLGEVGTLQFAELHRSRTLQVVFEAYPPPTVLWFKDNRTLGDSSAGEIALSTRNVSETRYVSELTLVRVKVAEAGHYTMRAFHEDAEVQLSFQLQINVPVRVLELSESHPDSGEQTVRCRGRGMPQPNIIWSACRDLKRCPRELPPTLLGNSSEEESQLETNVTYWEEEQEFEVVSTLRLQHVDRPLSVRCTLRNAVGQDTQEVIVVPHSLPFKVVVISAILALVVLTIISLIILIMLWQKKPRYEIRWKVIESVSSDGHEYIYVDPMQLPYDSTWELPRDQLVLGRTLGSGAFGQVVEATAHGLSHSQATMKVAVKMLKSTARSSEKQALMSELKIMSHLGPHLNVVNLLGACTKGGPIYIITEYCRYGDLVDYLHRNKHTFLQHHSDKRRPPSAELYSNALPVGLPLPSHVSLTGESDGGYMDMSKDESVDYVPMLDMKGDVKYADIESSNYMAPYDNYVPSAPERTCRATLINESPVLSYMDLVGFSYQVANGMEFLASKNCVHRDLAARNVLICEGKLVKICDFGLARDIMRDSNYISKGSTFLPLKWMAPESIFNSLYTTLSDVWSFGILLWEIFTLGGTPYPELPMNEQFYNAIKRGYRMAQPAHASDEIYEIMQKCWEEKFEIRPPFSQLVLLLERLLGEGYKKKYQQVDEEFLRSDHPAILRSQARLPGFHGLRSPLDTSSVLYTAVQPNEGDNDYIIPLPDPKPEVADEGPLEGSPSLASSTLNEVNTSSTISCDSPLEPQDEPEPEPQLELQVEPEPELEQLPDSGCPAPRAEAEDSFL

`COc1cc2c(Nc3ccc(Br)cc3F)ncnc2cc1OCCCCN(C)C.Cl.Cl` [HA121-28, N-(4-bromo-2-fluorophenyl)-7-(4-(dimethylamino)butoxy)-6-methoxy quinazolin-4-amine dihydrochloride] showed an IC50 [1] of 4.36 ± 0.338 µM, an IC50 [2] of 0.859 ± 0.0179 µM and an IC50 [3] of 3.83 ± 0.0915 µM. For the same molecule, the AUC0-72h ([4]; 7 consecutive days (5 mg/kg)) was 639 ± 69.0 ng·h/mL, the “AUC0-∞” value ([4]; 7 consecutive days (5 mg/kg)) was 655 ± 72.2 ng·h/mL and the CL ([4]; 7 consecutive days (5 mg/kg)) was 175 ± 21.5 mL/min/kg. The Cmax ([4]; 7 consecutive days (5 mg/kg)) was 30.6 ± 3.25 ng/mL, the “MRT0-∞” value ([4]; 7 consecutive days (5 mg/kg)) was 18.5 ± 1.89 h and the Tmax ([4]; 7 consecutive days (5 mg/kg)) was 6.17 ± 2.48 h. The Vd ([4]; 7 consecutive days (5 mg/kg)) was 214 ± 25.1 L/kg, the t1/2 ([4]; 7 consecutive days (5 mg/kg)) was 14.2 ± 1.19 h and the “F (oral bioavailability)” value ([4]; dog) was 56.0%. The AUC0-72h ([4]; high dose (10 mg/kg)) was 837 ± 207 ng·h/mL, the “AUC0-∞” value ([4]; high dose (10 mg/kg)) was 848 ± 212 ng·h/mL and the CL ([4]; high dose (10 mg/kg)) was 212 ± 75.2 mL/min/kg. The Cmax ([4]; high dose (10 mg/kg)) was 58.9 ± 26.7 ng/mL, the MRT0-72h ([4]; high dose (10 mg/kg)) was 14.8 ± 1.96 h and the “MRT0-∞” value ([4]; high dose (10 mg/kg)) was 15.7 ± 2.45 h. For the same molecule, the Tmax ([4]; high dose (10 mg/kg)) was 2.17 ± 0.753 h, the Vd ([4]; high dose (10 mg/kg)) was 197 ± 57.5 L/kg and the t1/2 ([4]; high dose (10 mg/kg)) was 11.0 ± 1.51 h. For the same molecule, the AUC0-72h ([4]; intravenous (2.5 mg/kg)) was 489 ± 73.0 ng·h/mL, the “AUC0-∞” value ([4]; intravenous (2.5 mg/kg)) was 493 ± 73.7 ng·h/mL and the C5min ([4]; intravenous (2.5 mg/kg)) was 124 ± 17.6 ng/mL. The CL ([4]; intravenous (2.5 mg/kg)) was 86.3 ± 14.8 mL/min/kg, the MRT0-72h ([4]; intravenous (2.5 mg/kg)) was 10.9 ± 1.30 h and the “MRT0-∞” value ([4]; intravenous (2.5 mg/kg)) was 11.5 ± 1.51 h. For the same molecule, the Vd ([4]; intravenous (2.5 mg/kg)) was 85.0 ± 27.0 L/kg, the t1/2 ([4]; intravenous (2.5 mg/kg)) was 11.2 ± 1.70 h and the AUC0-72h ([4]; low dose (2.5 mg/kg)) was 274 ± 68.2 ng·h/mL. The “AUC0-∞” value ([4]; low dose (2.5 mg/kg)) was 279 ± 70.5 ng·h/mL, the CL ([4]; low dose (2.5 mg/kg)) was 157 ± 37.3 mL/min/kg and the Cmax ([4]; low dose (2.5 mg/kg)) was 13.4 ± 2.71 ng/mL. For the same molecule, the MRT0-72h ([4]; low dose (2.5 mg/kg)) was 16.3 ± 2.03 h, the “MRT0-∞” value ([4]; low dose (2.5 mg/kg)) was 17.6 ± 2.45 h and the Tmax ([4]; low dose (2.5 mg/kg)) was 6.50 ± 3.51 h. It also gave a Vd ([4]; low dose (2.5 mg/kg)) of 160 ± 41.3 L/kg, a t1/2 ([4]; low dose (2.5 mg/kg)) of 11.8 ± 1.00 h and an AUC0-72h ([4]; medium dose (5 mg/kg)) of 393 ± 74.0 ng·h/mL. For the same molecule, the “AUC0-∞” value ([4]; medium dose (5 mg/kg)) was 398 ± 75.3 ng·h/mL, the CL ([4]; medium dose (5 mg/kg)) was 217 ± 42.8 mL/min/kg and the Cmax ([4]; medium dose (5 mg/kg)) was 24.8 ± 3.90 ng/mL. The MRT0-72h ([4]; medium dose (5 mg/kg)) was 14.3 ± 1.36 h, the “MRT0-∞” value ([4]; medium dose (5 mg/kg)) was 15.2 ± 1.57 h and the Tmax ([4]; medium dose (5 mg/kg)) was 2.17 ± 0.753 h. For the same molecule, the Vd ([4]; medium dose (5 mg/kg)) was 217 ± 53.6 L/kg, the t1/2 ([4]; medium dose (5 mg/kg)) was 11.5 ± 1.16 h and the IC50 [5] was 0.165 µM.
